Results on 2 compounds are retold here after ChEMBL document CHEMBL5550222, “Synthesis and Biological Evaluation of Novel Psidium Meroterpenoid Derivatives against Cisplatin-Induced Acute Kidney Injury” (J Med Chem, 2024).

The subject of data set [1] is HK-2. The data set can be described thus: Protection against cisplatin-induced nephrotoxicity in human HK-2 cells at 1 to 10 uM preincubated with compound for 2 hrs followed by cisplatin induction and measured after 72 hrs by MTT assay. To be noted: dose 1-10 µM, time 74.0 hrs. The class given is functional, cell-based. In general terms: Tetrazolium assays rely on reduction of a dye to a coloured formazan, in cell work by metabolically active cells.

The subject of data set [2] is HK-2. Kind of data set: Inhibition of cisplatin-induced DNA damage in human HK-2 cells assessed as reduction in cleaved-PARP level at 2.5 to 10 uM by Western blot analysis. Format: functional, cell-based. To be noted: dose 2.5-10 µM. (In western blotting, separated proteins are transferred to a membrane and probed.)
The subject of data set [3] is Mus musculus. The data set can be described thus: Protection against cisplatin-induced nephrotoxicity in C57BL6/J mouse assessed as reduction in BUN level in kidney at 100 mg/kg, po preadministered with compound for 2 days followed by cisplatin addition on day 3 and measured 72 hrs post cisplatin administration. Format: functional, organism-based. To be noted: time 5.0 day.

In data set [4] the test system is Mus musculus. The data set can be described thus: Protection against cisplatin-induced nephrotoxicity in C57BL6/J mouse assessed as reduction in SCR level in kidney at 100 mg/kg, po preadministered with compound for 2 days followed by cisplatin addition on day 3 and measured 72 hrs post cisplatin administration. The class given is functional, organism-based. To be noted: time 5.0 day.

Data set [5] has as its system HK-2. The data set can be described thus: Effect on CTR1 mRNA level in human HK-2 cells by transcriptome sequencing analysis. Format: functional, cell-based.
Data set [6] relates to HK-2. Kind of data set: Induction of autophagy in human HK-2 cells assessed as upregulation of p62 expression at 2.5 to 10 uM by Western blotting analysis. Format: functional, cell-based. To be noted: dose 2.5-10 µM.
The test system of data set [7] is HK-2. The data set can be described thus: Induction of autophagy in human HK-2 cells assessed as upregulation of ATG5 expression at 2.5 to 10 uM by Western blotting analysis. Format: functional, cell-based. Particulars: dose 2.5-10 µM.
Another data set concerns Cell membrane. The data set can be described thus: Induction of mitochondrial membrane potential loss in human HK-2 cells at 2.5 to 10 uM by JC-1 staining based laser microscopic analysis. Format: cell membranes. To be noted: dose 2.5-10 µM.
A short description of data set [8]: Cmax in ICR mouse 50 mg/kg, po measured for 24 hrs by HPLC-MS analysis. The class given is ADME, organism-based. To be noted: in vivo.
Data set [9] in a line: Cmax in ICR mouse 1 mg/kg, iv measured for 24 hrs by HPLC-MS analysis. Format: ADME, organism-based. To be noted: in vivo.
Data set [10] can be described thus: AUC (0 to t) in ICR mouse 50 mg/kg, po measured for 24 hrs by HPLC-MS analysis. Format: ADME, organism-based. Particulars: in vivo.
Data set [11] in a line: AUC (0 to t) in ICR mouse 1 mg/kg, iv measured for 24 hrs by HPLC-MS analysis. Format: ADME, organism-based. Particulars: in vivo.
Data set [12] can be described thus: AUC (0 to infinity) in ICR mouse 50 mg/kg, po measured for 24 hrs by HPLC-MS analysis. The class given is ADME, organism-based. To be noted: in vivo.
A short description of data set [13]: AUC (0 to infinity) in ICR mouse 1 mg/kg, iv measured for 24 hrs by HPLC-MS analysis. Format: ADME, organism-based. To be noted: in vivo.
Data set [14] is described as follows: Terminal half life in ICR mouse 50 mg/kg, po measured for 24 hrs by HPLC-MS analysis. The class given is ADME, organism-based. Particulars: in vivo, read-out: beta t1/2 (converted).
A short description of data set [15]: Terminal half life in ICR mouse 1 mg/kg, iv measured for 24 hrs by HPLC-MS analysis. Format: ADME, organism-based. Particulars: in vivo, read-out: beta t1/2 (converted).
Data set [16] in a line: MRT (0 to t) in ICR mouse 50 mg/kg, po measured for 24 hrs by HPLC-MS analysis. The class given is ADME, organism-based. To be noted: in vivo.
Data set [17] in a line: MRT (0 to t) in ICR mouse 1 mg/kg, iv measured for 24 hrs by HPLC-MS analysis. Format: ADME, organism-based. To be noted: in vivo.
Data set [18] can be described thus: MRT (0 to infinity) in ICR mouse 50 mg/kg, po measured for 24 hrs by HPLC-MS analysis. Particulars: in vivo. The class given is ADME, organism-based.
Data set [19] is described as follows: MRT (0 to infinity) in ICR mouse 1 mg/kg, iv measured for 24 hrs by HPLC-MS analysis. The class given is ADME, organism-based. Particulars: in vivo.
Data set [20] can be described thus: Clearance in ICR mouse 1 mg/kg, iv measured for 24 hrs by HPLC-MS analysis. Particulars: in vivo. Format: ADME, organism-based.
The nature of data set [21]: Volume of distribution in ICR mouse 1 mg/kg, iv measured for 24 hrs by HPLC-MS analysis. To be noted: in vivo. The class given is ADME, organism-based.
Data set [22] can be described thus: Oral bioavailability in ICR mouse 50 mg/kg measured for 24 hrs by HPLC-MS analysis. The class given is ADME, organism-based. To be noted: in vivo.
Data set [23] can be described thus: Acute toxicity in C57BL/6J mouse assessed as animal death at 1 g/Kg, po measured for 2 weeks. The class given is organism-based. To be noted: in vivo, 1000 mg/kg, 336 h.
Data set [24] in a line: Acute toxicity in C57BL/6J mouse assessed as abnormal behavior at 1 g/Kg, po measured for 2 weeks. The class given is organism-based. To be noted: in vivo, 1000 mg/kg, 336 h.
The nature of data set [25]: Acute toxicity in C57BL/6J mouse assessed as heart damage at 1 g/Kg, po measured for 2 weeks by H and E staining based analysis. Format: organism-based. To be noted: in vivo, 1000 mg/kg, 336 h.
Data set [26] is described as follows: Acute toxicity in C57BL/6J mouse assessed as liver damage at 1 g/Kg, po measured for 2 weeks by H and E staining based analysis. Format: organism-based. To be noted: in vivo, 1000 mg/kg, 336 h.
The nature of data set [27]: Acute toxicity in C57BL/6J mouse assessed as spleen damage at 1 g/Kg, po measured for 2 weeks by H and E staining based analysis. The class given is organism-based. Particulars: in vivo, 1000 mg/kg, 336 h.
The nature of data set [28]: Acute toxicity in C57BL/6J mouse assessed as lung damage at 1 g/Kg, po measured for 2 weeks by H and E staining based analysis. Format: organism-based. To be noted: in vivo, 1000 mg/kg, 336 h.
The nature of data set [29]: Acute toxicity in C57BL/6J mouse assessed as kidney damage at 1 g/Kg, po measured for 2 weeks by H and E staining based analysis. Format: organism-based. Particulars: in vivo, 1000 mg/kg, 336 h.
A short description of data set [30]: Acute toxicity in C57BL/6J mouse assessed as brain damage at 1 g/Kg, po measured for 2 weeks by H and E staining based analysis. Particulars: in vivo, 1000 mg/kg, 336 h. The class given is organism-based.
Data set [31] can be described thus: Acute toxicity in C57BL/6J mouse assessed as stomach damage at 1 g/Kg, po measured for 2 weeks by H and E staining based analysis. The class given is organism-based. To be noted: in vivo, 1000 mg/kg, 336 h.
The nature of data set [32]: Acute toxicity in C57BL/6J mouse assessed as small intestine damage at 1 g/Kg, po measured for 2 weeks by H and E staining based analysis. Format: organism-based. Particulars: in vivo, 1000 mg/kg, 336 h.
A short description of data set [33]: Acute toxicity in C57BL/6J mouse assessed as ovary damage at 1 g/Kg, po measured for 2 weeks by H and E staining based analysis. The class given is organism-based. Particulars: in vivo, 1000 mg/kg, 336 h.
The nature of data set [34]: Cytotoxicity against human HK-2 cells incubated for 72 hrs by MTT assay. The class given is toxicity, cell-based.
Data set [35] concerns HK-2. The data set can be described thus: Protection against cisplatin-induced nephrotoxicity in human HK-2 cells assessed as cell viability at 5 uM preincubated with compound for 2 hrs followed by cisplatin induction and measured after 72 hrs by MTT assay (reference value: 45.1 +/- 3.2%). Particulars: time 74 hrs, read-out: Activity. The class given is functional.
Data set [36] concerns HK-2. Kind of data set: Protection against cisplatin-induced nephrotoxicity in human HK-2 cells assessed as cell viability at 10 uM preincubated with compound for 2 hrs followed by cisplatin induction and measured after 72 hrs by MTT assay (reference value: 45.1 +/- 3.2%). The class given is functional. Particulars: time 74 hrs, read-out: Activity.
Data set [37] has as its system HK-2. Kind of data set: Protection against cisplatin-induced nephrotoxicity in human HK-2 cells at 5 to 10 uM preincubated with compound for 2 hrs followed by cisplatin induction and measured after 72 hrs by MTT assay. The class given is functional, cell-based. To be noted: dose 5-10 µM, time 74.0 hrs.
The test system of data set [38] is HK-2. The data set can be described thus: Protection against cisplatin-induced nephrotoxicity in human HK-2 cells preincubated with compound for 2 hrs followed by cisplatin induction and measured after 72 hrs by MTT assay. To be noted: dose 1-10 µM, time 74.0 hrs. Format: functional, cell-based.
The subject of data set [39] is HK-2. The data set can be described thus: Protection against cisplatin-induced nephrotoxicity in human HK-2 cells increase in viability at 10 uM preincubated with compound for 2 hrs followed by cisplatin induction and measured after 72 hrs by MTT assay (reference value: 45.1%). Particulars: time 74 hrs. The class given is functional.

Usually Cmax stands for the highest concentration seen after dosing. As usually defined, the AUC(0-t) is exposure summed from dosing to a finite time, without extrapolation to infinity. Read a low AUC(0-t) as less exposure. Usually AUC(0-inf) stands for total exposure, with the tail of the curve extrapolated. A low value points to low exposure. For orientation: MRT last means the average time that molecules of a dose stay in the body. One may read the MRT inf as the average time that molecules of a dose stay in the body. As a reminder, the clearance is the volume of plasma or blood freed of the substance per unit of time. Higher therefore signals a high capacity for elimination. For orientation: Vd means a proportionality between amount in the body and measured concentration, not a real space. A high value points to extensive tissue distribution. As usually defined, the bioavailability is the share of a dose that reaches the circulation, judged against a reference dose that is usually intravenous. A low value points to poor availability. The term IC50 denotes the concentration needed to halve the response being measured. Read a high IC50 as weaker potency.

Structures are written as SMILES. Activity calls are given as the source filed them. The calls are words filed in the database; no cut-off is given here. A value given as a limit tells only on which side of the number the result lay.

For `COc1c(CO)c(OC)c(C(=O)c2ccccc2)c2c1C[C@H]1CC/C(C)=C/CC(C)(C)/C=C/C[C@]1(C)O2`, the result in the data set on HK-2 [1], in the data set with Mus musculus [3], with Mus musculus [4], with HK-2 [6], with HK-2 [7] and with Cell membrane was Active. In the data set with HK-2 [2], the inhibition result is “Active”. In addition, the outcome in the data set on HK-2 [5] was inactive. Further, the peak concentration (Cmax) in data set [8] came out at 0.266 µg/mL; in [9], 0.485 µg/mL. The exposure AUC(0-t) at 24 h was 0.783 µg·h/mL in data set [10] and 0.137 µg·h/mL in [11]. Besides, the total exposure AUC(0-inf) in data set [12] stood at 0.869 µg·h/mL; in data set [13] it was 0.146 µg·h/mL. Also, the results for the half-life in data set [14] and in [15] were 2.5 h and 2.47 h, respectively. Also, the MRT last at 24 h is 2.29 h in [16] and 1.59 h in data set [17]. For the same compound, the figures for the mean residence time (MRT inf) in [18] and in [19] were 3.21 h and 2.22 h, respectively. In [20], this compound showed a clearance of 6.85 L/h/kg. The compound also returned a Vd in data set [21] of 24.4 L/kg. The compound also had a bioavailability in [22] of 11.9%. Also, the Activity entry in data set [23], in data set [24], in data set [25], in [26], in data set [27] and in data set [28] was “Non-Toxic” throughout. Also, the Activity result in data set [29], in data set [30], in data set [31], in data set [32] and in data set [33] was “Non-Toxic” throughout.
In data set [34], `COc1c(C=O)c(OC)c(C(=O)c2ccccc2)c2c1CC1CC/C(C)=C/CC(C)(C)/C=C/CC1(C)O2` (stereo not given) came in with an IC50 at 72 h of more than 10 µM. For the same compound, the viability at 5 µM in the data set with HK-2 [35] turned out to be 82.8%. In addition, the viability at 10 µM in the data set with HK-2 [36] was 90.6%. Also, the outcome in the data set with HK-2 [37], in the data set with HK-2 [6], in the data set on HK-2 [7] and in the data set with Cell membrane was Active. The Activity entry was “Dose-Dependent Effect” in the data set with HK-2 [38] and more than 90% in the data set with HK-2 [39]. In addition, the inhibition entry in the data set with HK-2 [2] is “Active”. Also, the result with HK-2 [5] was inactive.
